Active and inactive are the calls of the source. Peptide text beside a SMILES is read from it.
Tests used:
Staphylococcus aureus [1] = assay: Antimicrobial activity against Staphylococcus aureus ATCC 25923 assessed as reduction in bacterial growth by broth dilution method; assay type: functional
Staphylococcus aureus [2] = assay: Antimicrobial activity against multi-drug resistant Staphylococcus aureus assessed as reduction in bacterial growth by broth dilution method; assay type: functional
[3] = test system: Staphylococcus epidermidis; assay: Antimicrobial activity against multi-drug resistant Staphylococcus epidermidis assessed as reduction in bacterial growth by broth dilution method; assay type: functional
Enterococcus faecalis = assay: Antimicrobial activity against multi-drug resistant Enterococcus faecalis assessed as reduction in bacterial growth by broth dilution method; assay type: functional
Escherichia coli [4] = assay: Antimicrobial activity against Escherichia coli ATCC 25922 assessed as reduction in bacterial growth by broth dilution method; assay type: functional
Escherichia coli [5] = assay: Antimicrobial activity against multi-drug resistant Escherichia coli assessed as reduction in bacterial growth by broth dilution method; assay type: functional
Klebsiella pneumoniae = assay: Antimicrobial activity against multi-drug resistant Klebsiella pneumoniae assessed as reduction in bacterial growth by broth dilution method; assay type: functional
Acinetobacter baumannii = assay: Antimicrobial activity against multi-drug resistant Acinetobacter baumannii assessed as reduction in bacterial growth by broth dilution method; assay type: functional
[6] = Hemolytic activity in human Red blood cell assessed as hemolysis incubated for 1 hrs by microplate reader based analysis; assay type: toxicity; conditions: erythrocyte
BEAS-2B = assay: Cytotoxicity against human BEAS-2B cells at 2 to 256 uM measured after 24 hrs by CCK-8 method; assay type: toxicity, cell-based; conditions: dose 2-256 µM
HEK-293T = assay: Cytotoxicity against HEK293T cells at 2 to 256 uM measured after 24 hrs by CCK-8 method; assay type: toxicity, cell-based; conditions: human, dose 2-256 µM
L02 = assay: Cytotoxicity against human LO2 cells at 2 to 256 uM measured after 24 hrs by CCK-8 method; assay type: toxicity, cell-based; conditions: l02, 24 h, dose 2-256 µM
Staphylococcus aureus [7] = assay: Antimicrobial activity against multi-drug resistant Staphylococcus aureus assessed as fold increase in MIC in presence of NaCl; assay type: functional
Staphylococcus aureus [8] = assay: Antimicrobial activity against multi-drug resistant Staphylococcus aureus assessed as fold increase in MIC in presence of MgCl2; assay type: functional
Escherichia coli [9] = assay: Antimicrobial activity against multi-drug resistant Escherichia coli assessed as fold increase in MIC in presence of NaCl; assay type: functional
Escherichia coli [10] = assay: Antimicrobial activity against multi-drug resistant Escherichia coli assessed as fold increase in MIC in presence of MgCl2; assay type: functional
Staphylococcus aureus [11] = assay: Antimicrobial activity against multi-drug resistant Staphylococcus aureus assessed as fold increase in MIC measured after 6 hrs in 25% plasma; assay type: functional
Escherichia coli [12] = assay: Antimicrobial activity against multi-drug resistant Escherichia coli assessed as fold increase in MIC measured after 6 hrs in 25% plasma; assay type: functional
[13] = Half life of the compound in 25% plasma; assay type: ADME, cell-free
Escherichia coli [14] = assay: Antimicrobial activity against multi-drug resistant Escherichia coli assessed as reduction in bacterial growth at 2 times MIC measured after 1 hrs in presence of trypsin by microplate reader based analysis; assay type: functional, organism-based
Escherichia coli [15] = assay: Antimicrobial activity against multi-drug resistant Escherichia coli assessed as reduction in bacterial growth at 2 times MIC measured after 1 hrs in presence of chymotrypsin by microplate reader based analysis; assay type: functional, organism-based
Staphylococcus aureus [16] = assay: Antimicrobial activity against multi-drug resistant Staphylococcus aureus assessed as reduction in bacterial growth at 2 times MIC measured after 1 hrs in presence of trypsin by microplate reader based analysis; assay type: functional, organism-based
Staphylococcus aureus [17] = assay: Antimicrobial activity against multi-drug resistant Staphylococcus aureus assessed as reduction in bacterial growth at 2 times MIC measured after 1 hrs in presence of chymotrypsin by microplate reader based analysis; assay type: functional, organism-based
Escherichia coli [18] = assay: Antimicrobial activity against multi-drug resistant Escherichia coli assessed as fold increase in MIC in presence of KCl; assay type: functional
Escherichia coli [19] = assay: Antimicrobial activity against multi-drug resistant Escherichia coli assessed as fold increase in MIC in presence of FeCl3; assay type: functional
Staphylococcus aureus [20] = assay: Antimicrobial activity against multi-drug resistant Staphylococcus aureus assessed as reduction in bacterial growth measured after 1 to 6 hrs in 25% plasma; assay type: functional, organism-based; conditions: time 1-6 hrs
Staphylococcus aureus [21] = assay: Antibacterial activity against Staphylococcus aureus ATCC 25923 at sub-inhibitory concentration measured after 15 passages for 18 hrs; assay type: functional; parameters: scale not given: the % may be the effect or the level left
Staphylococcus aureus [22] = assay: Bactericidal activity against multi-drug resistant Staphylococcus aureus assessed as eradication of bacterial growth at 2 times MIC by time-kill kinetic assay; assay type: functional, organism-based; conditions: time 120-720 min
Escherichia coli [23] = assay: Bactericidal activity against multi-drug resistant Escherichia coli assessed as eradication of bacterial growth at 2 times MIC by time-kill kinetic assay; assay type: functional, organism-based; conditions: time 120-720 min
Staphylococcus aureus [24] = assay: Bactericidal activity against multi-drug resistant Staphylococcus aureus assessed as eradication of bacterial growth at 2 times MIC measured after 6 hrs by time-kill kinetic assay relative to control; assay type: functional
Escherichia coli [25] = assay: Bactericidal activity against multi-drug resistant Escherichia coli assessed as eradication of bacterial growth at 2 times MIC measured after 6 hrs by time-kill kinetic assay relative to control; assay type: functional
Cell membrane [26] = assay: Disruption of cell membrane in multi-drug resistant Staphylococcus aureus assessed as appearance of wrinkled cell surface at 2 times MIC measured for 120 mins by transmission electron microscopy analysis; assay type: subcellular
Cell membrane [27] = assay: Disruption of cell membrane in multi-drug resistant Staphylococcus aureus assessed as appearance of ruptured cell surface at 2 times MIC measured for 120 mins by transmission electron microscopy analysis; assay type: subcellular
Cell membrane [28] = assay: Disruption of cell membrane in multi-drug resistant Escherichia coli assessed as appearance of wrinkled cell surface at 2 times MIC measured for 120 mins by transmission electron microscopy analysis; assay type: subcellular
Cell membrane [29] = assay: Disruption of cell membrane in multi-drug resistant Escherichia coli assessed as appearance of ruptured cell surface at 2 times MIC measured for 120 mins by transmission electron microscopy analysis; assay type: subcellular
Cell membrane [30] = assay: Disruption of cell membrane in multi-drug resistant Staphylococcus aureus assessed as increase in red fluorescence intensity of PI at 2 times MIC measured for 2 hrs by fluorescence confocal microscopic imaging based analysis; assay type: subcellular
Cell membrane [31] = assay: Disruption of cell membrane in multi-drug resistant Escherichia coli assessed as increase in red fluorescence intensity of PI at 2 times MIC measured for 2 hrs by fluorescence confocal microscopic imaging based analysis; assay type: subcellular
Escherichia coli [32] = assay: Bactericidal activity against multi-drug resistant Escherichia coli at 1 times MIC preincubated with LPS for 1 hrs followed by bacterial addition and measured after 18 hrs by microplate reader based analysis; assay type: functional, organism-based; conditions: time 19.0 hrs
Cell membrane [33] = assay: Induction of outer membrane permeabilization in multi-drug resistant Escherichia coli assessed as NPN uptake at 1 to 4 times MIC measured within 1 min by fluorescence based analysis; assay type: subcellular
Cell membrane [34] = assay: Induction of cytoplasmic membrane depolarization in multi-drug resistant Escherichia coli at 1 to 4 times MIC measured within 1 min by DiSC3-5 fluorescent dye based analysis
Cell membrane [35] = assay: Induction of cytoplasmic membrane depolarization in multi-drug resistant Staphylococcus aureus at 1 to 4 times MIC measured within 1 min by DiSC3-5 fluorescent dye based analysis
Staphylococcus aureus [36] = assay: Antibiofilm activity against multi-drug resistant Staphylococcus aureus measured after 24 hrs by crystal violet staining based analysis; assay type: functional, organism-based
Escherichia coli [37] = assay: Antibiofilm activity against multi-drug resistant Escherichia coli measured after 24 hrs by crystal violet staining based analysis; assay type: functional, organism-based
Escherichia coli [38] = assay: Antibiofilm activity against multi-drug resistant Escherichia coli at 0.5 times MIC measured after 24 hrs by crystal violet staining based analysis; assay type: functional, organism-based
Staphylococcus aureus [39] = assay: Antibiofilm activity in methicillin-resistant Staphylococcus aureus assessed as eradication of formed biofilm by measuring reduction in viable bacterial count measured after 12 hrs by confocal microscopy based analysis; assay type: functional, organism-based
Escherichia coli [40] = assay: Antibiofilm activity in […] assessed as eradication of formed biofilm by measuring reduction in viable bacterial count measured after 12 hrs by confocal microscopy based analysis; assay type: functional, organism-based
Staphylococcus aureus [41] = assay: Antibiofilm activity in methicillin-resistant Staphylococcus aureus assessed as eradication of formed biofilm at 1 to 4 times MIC measured after 12 hrs by confocal microscopy based analysis; assay type: functional, organism-based
Escherichia coli [42] = assay: Antibiofilm activity in […] assessed as eradication of formed biofilm at 1 to 4 times MIC measured after 12 hrs by confocal microscopy based analysis; assay type: functional, organism-based

CC(C)C[C@H](NC(=O)[C@H](CCCCN)NC(=O)[C@H](CC(C)C)NC(=O)[C@H](CCCCN)NC(=O)[C@@H]1CCCN1C(=O)[C@H](Cc1c[nH]c2ccccc12)NC(=O)[C@H](Cc1c[nH]c2ccccc12)NC(=O)[C@H](Cc1c[nH]c2ccccc12)NC(=O)[C@@H]1CCCN1C(=O)[C@H](CCCCN)NC(=O)[C@H](CC(C)C)NC(=O)[C@H](CCCCN)NC(=O)[C@H](CC(C)C)NC(=O)[C@@H](N)CCCCN)C(=O)N[C@@H](CCCCN)C(N)=O (H-KLKLKPWWWPKLKLK-NH2)
8 µM: MIC (Staphylococcus aureus [1]) | MIC (Staphylococcus aureus [2]) | MIC [3] | MIC (Enterococcus faecalis) | MIC (Acinetobacter baumannii)
2: fold change (FC) (Staphylococcus aureus [7]) | fold change (FC) (Staphylococcus aureus [8]) | fold change (FC) (Escherichia coli [9]) | fold change (FC) (Escherichia coli [10]) | fold change (FC) (Staphylococcus aureus [11]) | fold change (FC) (Escherichia coli [12])
4 µM: MIC (Escherichia coli [4]) | MIC (Escherichia coli [5]) | MIC (Klebsiella pneumoniae)
inactive: Activity (Escherichia coli [14]) | Activity (Escherichia coli [15]) | Activity (Staphylococcus aureus [16]) | Activity (Staphylococcus aureus [17])
> 256 µM: HC10 [6]
35.4 h: half-life [13]
Toxic: Activity (BEAS-2B) | Activity (HEK-293T) | Activity (L02)

CC(C)C[C@H](NC(=O)[C@H](Cc1ccccc1)NC(=O)[C@@H]1CCCN1C(=O)[C@H](Cc1c[nH]c2ccccc12)NC(=O)[C@H](Cc1c[nH]c2ccccc12)NC(=O)[C@H](Cc1c[nH]c2ccccc12)NC(=O)[C@@H]1CCCN1C(=O)[C@H](Cc1ccccc1)NC(=O)[C@H](CCCNC(=N)N)NC(=O)[C@H](CCCNC(=N)N)NC(=O)[C@@H](N)C(C)C)C(=O)N[C@@H](CCCNC(=N)N)C(=O)N[C@@H](CCCNC(=N)N)C(=O)O
4 µM: MIC [3] | MIC (Enterococcus faecalis)
256 µM: MIC (Klebsiella pneumoniae)
1.7 h: half-life [13]
active: Activity (Staphylococcus aureus [22]) Time-dependent-effect | Activity (Escherichia coli [23]) Time-dependent-effect | Activity (Cell membrane [26]) | Activity (Cell membrane [27]) | Activity (Cell membrane [28]) | Activity (Cell membrane [29]) | Activity (Cell membrane [30]) | Activity (Cell membrane [31]) | Activity (Cell membrane [33]) | Activity (Cell membrane [34]) | Activity (Cell membrane [35]) | Activity (Staphylococcus aureus [36]) Dose-dependent-effect | Activity (Escherichia coli [37]) Dose-dependent-effect | Activity (Staphylococcus aureus [39]) Dose-dependent-effect | Activity (Escherichia coli [40]) Dose-dependent-effect | Activity (Staphylococcus aureus [41]) | Activity (Escherichia coli [42])
8 µM: MIC (Staphylococcus aureus [1])
16 µM: MIC (Staphylococcus aureus [2]) | MIC (Escherichia coli [4]) | MIC (Escherichia coli [5])
2: fold change (FC) (Escherichia coli [9]) | fold change (FC) (Escherichia coli [18]) | fold change (FC) (Escherichia coli [19])
33.13 µM: HC10 [6]
100%: Activity (Staphylococcus aureus [21]) | Activity (Staphylococcus aureus [24]) | Activity (Escherichia coli [25])
32 µM: MIC (Acinetobacter baumannii)
inactive: Activity (Staphylococcus aureus [20]) | Activity (Escherichia coli [14]) | Activity (Escherichia coli [15]) | Activity (Staphylococcus aureus [16]) | Activity (Staphylococcus aureus [17]) | Activity (Escherichia coli [32]) | Activity (Escherichia coli [38])

From ChEMBL document CHEMBL6134890, “Terminally Symmetric β-Turn Peptides for Multidrug-Resistant Bacterial Infections” (J Med Chem, 2025)
